Where two headings read alike, the source gives them in different places.
Tests used:
[1] = tested on: carbapenem-resistant (CR) Acinetobacter baumannii (AB); assay: Broth microdilution MIC of β-lactams alone and with Compound 1 against carbapenem-resistant Acinetobacter baumannii clinical isolates; type: cell-based; settings: Compound 1 at fixed 4 μg/mL; for % susceptible, [S]: breakpoints MER ≤8 μg/mL, TOL ≤4 μg/mL
Description: (§1) In this example the in vitro activity of Compound 1 was evaluated in combination with several β-lactams including sulbactam, meropenem, and ceftolozane against clinical isolates of carbapenem-resistant (CR) Acinetobacter baumannii (AB) and Pseudomonas aeruginosa (PA).

[2] = tested on: Pseudomonas aeruginosa (PA); assay: Broth microdilution MIC of β-lactams alone and with Compound 1 against Pseudomonas aeruginosa clinical isolates (representative and challenge panels); type: cell-based; settings: for MIC Distribution, % of isolates: Compound 1 at 8 μg/mL; for MIC Distribution, % of isolates / Minimum Inhibitory Concentration Distribution, % of isolates: AVI and TAZ at 4 μg/mL; for Minimum Inhibitory Concentration Distribution, % of isolates: representative panel of PA (N = 500), without Compound 1; for % susceptible, [S] / MIC50 / MIC90: Compound 1, AVI, and TAZ at fixed 4 μg/mL; for % susceptible, [S]: breakpoints MER ≤8, TOL ≤4, CAZ ≤8 μg/mL; for MIC50 / MIC90: Pseudomonas aeruginosa
Description: as §1

[3] = tested on: P. aeruginosa; assay: Susceptibility testing of 262 P. aeruginosa strains with meropenem MIC >2 μg/mL; type: cell-based, Pseudomonas aeruginosa; settings: Compound 1 at 8 μg/mL, breakpoints ≤8 μg/mL meropenem and cefepime, ≤4 μg/mL ceftolozane, ≤16 μg/mL piperacillin
Description: In addition, 509 Carbapenem-Resistant Enterobacteriaceae were tested with meropenem, cefepime, and ceftolozane alone and in combination with Compound 1 at 8 μg/mL. Furthermore, 262 strains of P. aeruginosa with a meropenem MIC>2 μg/mL were tested with meropenem, ceftolozane, cefepime and piperacillin alone and in combination with Compound 1 at 8 μg/mL.
262 strains of P. aeruginosa having a meropenem MIC greater than 2 μg/mL were tested with meropenem, ceftolozane, cefepime and piperacillin alone and Compound 1 at 8 μg/mL.

[4] = tested on: carbapenem resistant Enterobacteriaceae (CRE); assay: MIC of antibiotics with Compound 1 against panel of 510 CRE clinical isolates; type: cell-based; settings: antibiotic alone
Description: In this example, the antibiotics meropenem, cefepime, ceftolozane and cefiderocol, were tested in combination with Compound 1 at 4 μg/ml and 8 μg/ml against a panel of 510 clinical isolates representing various types of carbapenem resistant Enterobacteriaceae (CRE). Cefiderocol was tested at standard conditions, in […] media.

[5] = tested on: carbapenem resistant Acinetobacter baumannii; assay: MIC of antibiotics with Compound 1 against panel of 503 carbapenem resistant Acinetobacter baumannii clinical isolates; type: cell-based; settings: carbapenem resistant Acinetobacter baumannii (N = 503); antibiotic alone
Description: In another experiment, various antibiotics, meropenem, cefepime, ceftolozane and cefiderocol, were tested in combination with Compound 1 at 4 μg/ml and 8 μg/ml against the panel of 503 clinical isolates of carbapenem resistant Acinetobacter baumannii. […] Cefiderocol was tested at standard conditions, in […] media.

[6] = non-carbapenemase producing CRE, N = 45

SMILES: C[C@@H](O)[C@H]1C(=O)N2C(C(=O)O)=C(S[C@@H]3CN[C@H](C(=O)N(C)C)C3)[C@H](C)[C@H]12 [MER, meropenem]
- % susceptible, [S] ([1]; AB CP (100), defined carbapenemases): (0.0) %
- MIC50 ([1]; Acinetobacter baumannii, AB CP (100), defined carbapenemases, read-out: MIC50): > 32 µg/mL
- MIC90 ([1]; Acinetobacter baumannii, AB CP (100), defined carbapenemases, read-out: MIC90): > 32 µg/mL
- MIC50 ([1]; CRAB (300)): >32/>32 μg/mL
- MIC90 ([1]; CRAB (300)): >32/>32 μg/mL
- % susceptible, [S] ([1]; CRAB (300)): (1.0) %
- MIC Distribution, % of isolates ([2]; MIC 0.125 μg/mL, PA CAZ-AVI R (CAZ-AVI >8 μg/mL)): .3%
- MIC Distribution, % of isolates ([2]; MIC 0.125 μg/mL, PA MER NS (MER >2 μg/mL), N = 612): 0.0%
- MIC Distribution, % of isolates ([2]; MIC 0.125 μg/mL, PA TOL-TAZ NS (TOL-TAZ >4 μg/mL)): 1.3%
- Minimum Inhibitory Concentration Distribution, % of isolates ([2]; MIC 0.125 μg/mL): 14.2%
- MIC Distribution, % of isolates ([2]; MIC 0.25 μg/mL, PA CAZ-AVI R (CAZ-AVI >8 μg/mL)): .6%
- MIC Distribution, % of isolates ([2]; MIC 0.25 μg/mL, PA MER NS (MER >2 μg/mL), N = 612): .0%
- MIC Distribution, % of isolates ([2]; MIC 0.25 μg/mL, PA TOL-TAZ NS (TOL-TAZ >4 μg/mL)): 2.7%
- Minimum Inhibitory Concentration Distribution, % of isolates ([2]; MIC 0.25 μg/mL): 33.0%
- MIC Distribution, % of isolates ([2]; MIC 0.5 μg/mL, PA CAZ-AVI R (CAZ-AVI >8 μg/mL)): .2%
- MIC Distribution, % of isolates ([2]; MIC 0.5 μg/mL, PA MER NS (MER >2 μg/mL), N = 612): .0%
- MIC Distribution, % of isolates ([2]; MIC 0.5 μg/mL, PA TOL-TAZ NS (TOL-TAZ >4 μg/mL)): 3.7%
- Minimum Inhibitory Concentration Distribution, % of isolates ([2]; MIC 0.5 μg/mL): 51.0%
- MIC Distribution, % of isolates ([2]; MIC 1 μg/mL, PA CAZ-AVI R (CAZ-AVI >8 μg/mL)): .5%
- MIC Distribution, % of isolates ([2]; MIC 1 μg/mL, PA MER NS (MER >2 μg/mL), N = 612): .0%
- MIC Distribution, % of isolates ([2]; MIC 1 μg/mL, PA TOL-TAZ NS (TOL-TAZ >4 μg/mL)): 6.0%
- Minimum Inhibitory Concentration Distribution, % of isolates ([2]; MIC 1 μg/mL): 66.2%
- MIC Distribution, % of isolates ([2]; MIC 2 μg/mL, PA CAZ-AVI R (CAZ-AVI >8 μg/mL)): .8%
- MIC Distribution, % of isolates ([2]; MIC 2 μg/mL, PA MER NS (MER >2 μg/mL), N = 612): .0%
- MIC Distribution, % of isolates ([2]; MIC 2 μg/mL, PA TOL-TAZ NS (TOL-TAZ >4 μg/mL)): 8.7%
- Minimum Inhibitory Concentration Distribution, % of isolates ([2]; MIC 2 μg/mL): 73.2%
- MIC Distribution, % of isolates ([2]; MIC 4 μg/mL, PA CAZ-AVI R (CAZ-AVI >8 μg/mL)): 1.0%
- MIC Distribution, % of isolates ([2]; MIC 4 μg/mL, PA MER NS (MER >2 μg/mL), N = 612): .5%
- MIC Distribution, % of isolates ([2]; MIC 4 μg/mL, PA TOL-TAZ NS (TOL-TAZ >4 μg/mL)): 13.7%
- Minimum Inhibitory Concentration Distribution, % of isolates ([2]; MIC 4 μg/mL): 79.8%
- MIC Distribution, % of isolates ([2]; MIC 8 μg/mL, PA CAZ-AVI R (CAZ-AVI >8 μg/mL)): 8.2%
- MIC Distribution, % of isolates ([2]; MIC 8 μg/mL, PA MER NS (MER >2 μg/mL), N = 612): 7.5%
- MIC Distribution, % of isolates ([2]; MIC 8 μg/mL, PA TOL-TAZ NS (TOL-TAZ >4 μg/mL)): 22.1%
- Minimum Inhibitory Concentration Distribution, % of isolates ([2]; MIC 8 μg/mL): 84.8%
- MIC Distribution, % of isolates ([2]; MIC 16 μg/mL, PA CAZ-AVI R (CAZ-AVI >8 μg/mL)): 8.9%
- MIC Distribution, % of isolates ([2]; MIC 16 μg/mL, PA MER NS (MER >2 μg/mL), N = 612): 6.7%
- MIC Distribution, % of isolates ([2]; MIC 16 μg/mL, PA TOL-TAZ NS (TOL-TAZ >4 μg/mL)): 32.8%
- Minimum Inhibitory Concentration Distribution, % of isolates ([2]; MIC 16 μg/mL): 90.4%
- MIC Distribution, % of isolates ([2]; MIC 32 μg/mL, PA CAZ-AVI R (CAZ-AVI >8 μg/mL)): 3.2%
- MIC Distribution, % of isolates ([2]; MIC 32 μg/mL, PA MER NS (MER >2 μg/mL), N = 612): 0.4%
- MIC Distribution, % of isolates ([2]; MIC 32 μg/mL, PA TOL-TAZ NS (TOL-TAZ >4 μg/mL)): 58.2%
- Minimum Inhibitory Concentration Distribution, % of isolates ([2]; MIC 32 μg/mL): 95.4%
- MIC Distribution, % of isolates ([2]; MIC >32 μg/mL, PA CAZ-AVI R (CAZ-AVI >8 μg/mL)): 100.0%
- MIC Distribution, % of isolates ([2]; MIC >32 μg/mL, PA MER NS (MER >2 μg/mL), N = 612): 100.0%
- MIC Distribution, % of isolates ([2]; MIC >32 μg/mL, PA TOL-TAZ NS (TOL-TAZ >4 μg/mL)): 100.0%
- Minimum Inhibitory Concentration Distribution, % of isolates ([2]; MIC >32 μg/mL): 100.0%
- Minimum Inhibitory Concentration Distribution, % of isolates ([2]; MIC ≤0.06 μg/mL): 4.8%
- MIC Distribution, % of isolates ([2]; MIC ≥0.06 μg/mL, PA CAZ-AVI R (CAZ-AVI >8 μg/mL)): .3%
- MIC Distribution, % of isolates ([2]; MIC ≥0.06 μg/mL, PA MER NS (MER >2 μg/mL), N = 612): 0.0%
- MIC Distribution, % of isolates ([2]; MIC ≥0.06 μg/mL, PA TOL-TAZ NS (TOL-TAZ >4 μg/mL)): 0.3%
- % susceptible, [S] ([2]; PA (CAZ-AVI MIC >8) (37)): (18.9) %
- % susceptible, [S] ([2]; PA (Challenge, 652)): (31.9) %
- % susceptible, [S] ([2]; PA (MER MIC >2) (612)): (27.5) %
- % susceptible, [S] ([2]; PA (Representative, 500)): (84.8) %
- % susceptible, [S] ([2]; PA (TOL-TAZ MIC >4) (39)): (21.1) %
- MIC50 ([2]; PA (CAZ-AVI MIC >8) (37)): 32 µg/mL
- MIC90 ([2]; PA (CAZ-AVI MIC >8) (37)): > 32 µg/mL
- MIC50 ([2]; PA (Challenge, 652)): 16 µg/mL
- MIC90 ([2]; PA (Challenge, 652)): > 32 µg/mL
- MIC50 ([2]; PA (MER MIC >2) (612)): 32 µg/mL
- MIC90 ([2]; PA (MER MIC >2) (612)): > 32 µg/mL
- MIC50 ([2]; PA (Representative, 500)): 0.5 µg/mL
- MIC90 ([2]; PA (Representative, 500)): 16 µg/mL
- MIC50 ([2]; PA (TOL-TAZ MIC >4) (39)): 32 µg/mL
- MIC90 ([2]; PA (TOL-TAZ MIC >4) (39)): > 32 µg/mL
- % of susceptible organisms at breakpoints ([3]; All strains (N = 262), meropenem MIC >2 μg/mL): 42%
- % of susceptible organisms at breakpoints ([3]; MBL (N = 56)): 7%
- % of susceptible organisms at breakpoints ([3]; No MBL (N = 206)): 51%
- MIC50 ([4]; CRE KPC, N = 168): 32 µg/mL
- MIC90 ([4]; CRE KPC, N = 168): > 32 µg/mL
- MIC50 ([4]; CRE MBL, N = 145): > 32 µg/mL
- MIC90 ([4]; CRE MBL, N = 145): > 32 µg/mL
- MIC50 ([4]; CRE OXA, N = 152): 32 µg/mL
- MIC90 ([4]; CRE OXA, N = 152): > 32 µg/mL
- MIC50 [4, 6]: 8 µg/mL
- MIC90 [4, 6]: 16 µg/mL
- MIC50 [5]: > 32 µg/mL
- MIC90 [5]: > 32 µg/mL

From US12636297B2, “Boronic acid derivatives and therapeutic uses thereof” (priority 2019, dated 2026)
